Reference: patent US7687079B2, “Methods of treating ileus” (priority 2002, dated 2010)
“Also recorded” adds a separate entry of the source.

Experiments:
serum nitrite/nitrate = serum nitrite/nitrate levels after SITx (Griess reaction); format: in vivo, rat; conditions: SITx + CO vs SITx with air
Protocol: To monitor the stable end-products of NO metabolism, serum […] levels at 1, 4, and 24 hrs were measured using a commercially available test kit (Cayman, Ann Arbor, Mich.) and quantified according to the manufacturer's directions. In this assay system, nitrate is reduced to nitrite using nitrate reductase, and the nitrite concentration of the sample is subsequently measured using the Griess reaction.
FIG. 6 is a set of bar graphs that illustrate the effect of CO on serum IL-6 and nitrate/nitrite concentrations in animals receiving intestinal grafts at one and four hours after reperfusion. […] Serum IL-6 concentrations were determined using a rat enzyme-linked immunoassay (ELISA) kit (R&D, Cambridge, Mass.). The serum nitrite/nitrate levels, the stable end products of NO metabolism, were measured using a commercially available test kit (Cayman, Ann Arbor, Mich.). In this assay system, nitrate is reduced to nitrite using nitrate reductase, and nitrite concentration of the sample was subsequently measured using the Griess reaction. Serum IL-6 and nitrite/nitrate levels in animals subjected SITx and treated with air increased over time.

[1] = general observations after intestinal manipulation and CO exposure; format: in vivo, mouse; conditions: mice, CO 250 ppm, 1 hour before and 24 hours after laparotomy
Description: Surgical Manipulation. Mice were anesthetized with inhaled isoflurane and the abdomen opened by midline laparotomy. The small intestine was eventrated and gently compressed along its entire length using moistened sterile cotton applicators. This procedure is designed to simulate “running” of the bowel commonly performed during abdominal surgery in the clinical setting. The bowel was repositioned in the abdominal cavity and the incision closed by two layers of continuous sutures. The duration of the procedure was approximately 15 minutes and the animals moved freely about their cage within 20 minutes of withdrawal of anesthetic.
CO Inhalation Treatment. Mice housed in cages were placed in plexiglass chambers that were continuously ventilated with air or with air containing CO (250 ppm). A sampling port was provided to continuously monitor carbon monoxide concentrations within the chamber. Animals had free access to food and water at all times. Mice were exposed to CO or air 1 hour prior to laparotomy, removed for surgical manipulation, and then returned to the chamber for 24 hours. Mice not undergoing surgery were removed from the chamber for a similar length of time and then returned to the chamber for 24 hours.

[2] = tested on: MPO+ cells infiltrating the muscularis; assay: MPO histochemistry, leukocytes infiltrating intestinal muscularis after IM; format: in vivo, mouse; conditions: control and IM groups, 24 hr
Protocol: MPO Histochemistry. Muscularis whole-mounts were prepared from the mid-jejunum collected 24 hr post-operatively. Segments of intestine were immersed in KRB in a Sylgard lined glass dish (Midland, Mich.) and pinned without stretching along the mesenteric border. The length and width of the segments were measured with a caliper. The jejunal segment was then opened along the mesenteric border and stretched to 150% of the length and 250% of the width. The mucosa was removed using fine forceps, and the remaining tissue fixed in 100% denatured ethanol for 30 min. […] Tissues were mounted on glass slides using Gel/Mount™ (Biomedia Corp., Foster City, Calif.), cover-slipped and inspected by light microscopy (Nikon Microphot-FXA, Fryer, Huntley, Ill.) at a magnification of 200×. PMN's were counted in five to six adjacent optical fields centered between the mesenteric and antimesenteric borders.

PGE2 = PGE2 release from muscularis extracts (marker of COX-2 activity); format: in vivo, mouse; conditions: 24 hr
Protocol: Protein and Nitric Oxide Determinations. The small bowel of control and mice subjected to intestinal manipulation was removed under sterile conditions, 4 or 24 hours post-operatively, leaving the colon in situ. The small intestine was transferred to a beaker containing chilled Hanks balanced salt solution (Sigma, St. Louis, Mo.) with 200 U/ml penicillin G and 200 μg/ml streptomycin (HBSS), the lumen flushed, and the tissue transferred to a second beaker of HBSS. The muscularis was harvested as described above for real time RT-PCR. Tissues were maintained under sterile conditions at 3 to 5° C. throughout the harvesting procedure. Isolated muscularis was blotted onto sterile gauze, and the wet weight determined to obtain aliquots of 40 to 60 mg. […]
After the incubation period, the muscle tissue was pelleted, and aliquots of culture medium were frozen in liquid nitrogen and stored at −80° C. The levels of IL-6, IL-1β, PGE2, and IL-10 proteins secreted into the culture medium were determined using commercially available ELISA kits (R&D Systems, Minneapolis, Minn.) according to the manufacturer's instructions. […] Nitrate/nitrate levels were measured 24 hrs postoperatively using commercially available test kit (Oxford Biomedical Research, Oxford, Mich.) and quantified according to the manufacturer's directions. […]

circular muscle strip = assay: Example 3 circular muscle strip contractions in response to bethanechol after IM; format: in vivo, mouse; conditions: IM+CO mice (250 and 500 ppm), bethanechol 100 μM, 24 hours
Protocol: (§1) Ileus was induced in mice by gentle manipulation of the small intestine. An incision was made to expose the abdominal cavity of the mouse, and bowel manipulation was performed by gentle poking and prodding of the small intestine (see, e.g., Schwarz et al., Gastroenterology 121(6):1354-1357 (2001)). The incision was subsequently closed, and analyses were performed 24 hours later. Mice were exposed to CO by inhalation (250 and 500 ppm) for 1 hour immediately prior to intestinal manipulation and during the entire 24-hour recovery period. Intestinal contractility was assessed in vitro by measuring circular muscle strip contractions in response to bethanechol (0.3-300 μM) and in vivo by determining intestinal transit from the distribution of orally-fed, fluorescein-labeled dextran and calculating geometric center as described in Example 1 above. HO-1 and IL-10 mRNA expression were determined by SYBR green real time RT-PCR from extracts of muscularis extemae, as described in Example 1 above. Release of nitric oxide (NO), a potent inhibitor of smooth muscle contractility, was estimated by measuring serum total nitrite, also described in Example 1 above.

IL-10 mRNA = assay: Example 3 IL-10 mRNA by SYBR green real time RT-PCR; format: in vivo, mouse; conditions: IM-CO mice
Protocol: as §1, with “The incision was subsequently closed, and analyses were performed 24 hours later.” left out

[C-]#[O+] [CO, carbon monoxide]
serum nitrite/nitrate level (serum nitrite/nitrate): significantly decreased
mortality or morbidity associated with the CO exposure regime [1]: No mortality or morbidity
magnitude of the leukocyte infiltrate (MPO+ cells) [2]: no effect
IM-induced PGE2 release (PGE2; IM + CO): no effect
PGE2 release (PGE2; control muscularis, inhalation of CO alone): significant increases; also recorded: significantly increased
peak contractile force (circular muscle strip): 1.9±0.5 g/s/mm^2
IL-10 expression versus controls (IL-10 mRNA): 35 fold
